Data as given in publication PMC11859198, “Identification of Furin Protease Small-Molecule Inhibitor with a 1,3-Thiazol-2-ylaminosulfonyl Scaffold” (Pharmaceuticals, 2025).

Biological target: furin (Homo sapiens, UniProt P09958)
Assay: fluorogenic furin protease assay (BPS Bioscience kit), IC50 in triplicate
Assay type: biochemical
Settings: read-out: Biological Activity ^2 [IC50; μM] ^3 or % Inhibition ^4

Chain of furin (P09958 108-794): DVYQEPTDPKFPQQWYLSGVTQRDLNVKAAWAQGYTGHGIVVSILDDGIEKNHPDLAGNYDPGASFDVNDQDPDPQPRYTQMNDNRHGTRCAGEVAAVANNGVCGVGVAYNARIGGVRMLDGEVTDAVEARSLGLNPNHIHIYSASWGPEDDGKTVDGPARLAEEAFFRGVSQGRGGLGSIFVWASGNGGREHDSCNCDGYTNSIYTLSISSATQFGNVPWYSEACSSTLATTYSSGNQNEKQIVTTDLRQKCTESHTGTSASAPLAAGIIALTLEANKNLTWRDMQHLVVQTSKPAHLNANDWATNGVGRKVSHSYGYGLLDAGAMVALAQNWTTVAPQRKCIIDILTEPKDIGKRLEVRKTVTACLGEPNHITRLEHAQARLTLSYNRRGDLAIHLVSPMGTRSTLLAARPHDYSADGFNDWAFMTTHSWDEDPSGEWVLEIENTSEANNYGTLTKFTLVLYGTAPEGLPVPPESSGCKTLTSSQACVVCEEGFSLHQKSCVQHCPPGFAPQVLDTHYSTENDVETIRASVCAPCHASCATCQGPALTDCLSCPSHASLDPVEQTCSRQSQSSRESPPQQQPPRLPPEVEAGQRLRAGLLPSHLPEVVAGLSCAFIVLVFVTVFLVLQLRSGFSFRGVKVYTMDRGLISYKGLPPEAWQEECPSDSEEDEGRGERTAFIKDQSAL

COc1ccccc1/C=C1/SC(=S)N(CCC(=O)Nc2ccc(S(=O)(=O)Nc3nccs3)cc2)C1=O [compound 4, N-[4-(1,3-thiazol-2-ylaminosulfonyl)phenyl]-3-{(E)-5-[(2-methoxyphenyl)methylene]-4-oxo-2-thioxo-1,3-thiazolidin-3-yl}propionamide]
IC50: 17.6 ± 2.29 µM
